ChEMBL document CHEMBL4680163, “Discovery of potent epidermal growth factor receptor (EGFR) degraders by proteolysis targeting chimera (PROTAC)” (Eur J Med Chem, 2020)

What was measured:
A549 = assay: Antiproliferative activity against human A549 cells harboring EGFR assessed as reduction in cell viability incubated for 72 hrs by MTT assay; type: functional, cell-based; settings: A549, 72 h
HCC827 [1] = assay: Antiproliferative activity against human HCC827 cells harboring EGFRDel19 mutant assessed as reduction in cell viability incubated for 72 hrs by MTT assay; type: functional, cell-based; settings: HCC827, 72 h
NCI-H1975 = assay: Antiproliferative activity against human NCI-H1975 cells harboring EGFR L858/T790M mutant assessed as reduction in cell viability incubated for 72 hrs by MTT assay; type: functional, cell-based; settings: NCI-H1975, 72 h
A-431 = assay: Antiproliferative activity against human A-431 cells harboring EGFR assessed as reduction in cell viability incubated for 72 hrs by MTT assay; type: functional, cell-based; settings: A-431, 72 h
HCC827 [2] = assay: Induction of cell cycle arrest in human HCC827 cells assessed as accumulation in S phase at 1 uM incubated for 32 hrs by PI staining based flow cytometry analysis (reference value: 41.26 %); type: functional
HCC827 [3] = assay: Induction of apoptosis in human HCC827 cells assessed as necrotic cells at 0.1 uM incubated for 32 hrs by annexin V-FITC and PI staining based flow cytometry analysis (reference value: 6.68 %); type: functional
HCC827 [4] = assay: Induction of apoptosis in human HCC827 cells assessed as early apoptotic cells at 1 uM incubated for 32 hrs by annexin V-FITC and PI staining based flow cytometry analysis (reference value: 2.72%); type: functional
HCC827 [5] = assay: Induction of cell cycle arrest in human HCC827 cells assessed as accumulation in G1 phase at 0.1 uM incubated for 32 hrs by PI staining based flow cytometry analysis (reference value: 50.48 %); type: functional
HCC827 [6] = assay: Induction of apoptosis in human HCC827 cells assessed as viable cells at 1 uM incubated for 32 hrs by annexin V-FITC and PI staining based flow cytometry analysis (reference value: 72.15 %); type: functional; settings: read-out: Activity
HCC827 [7] = assay: Induction of apoptosis in human HCC827 cells assessed as late apoptotic cells at 0.1 uM incubated for 32 hrs by annexin V-FITC and PI staining based flow cytometry analysis (reference value: 14.23 %); type: functional
HCC827 [8] = assay: Induction of cell cycle arrest in human HCC827 cells assessed as accumulation in G2 phase at 0.1 uM incubated for 32 hrs by PI staining based flow cytometry analysis (reference value: 8.25 %); type: functional
HCC827 [9] = assay: Induction of cell cycle arrest in human HCC827 cells assessed as accumulation in G1 phase at 1 uM incubated for 32 hrs by PI staining based flow cytometry analysis (reference value: 50.48 %); type: functional
HCC827 [10] = assay: Induction of apoptosis in human HCC827 cells assessed as necrotic cells at 1 uM incubated for 32 hrs by annexin V-FITC and PI staining based flow cytometry analysis (reference value: 7.12 %); type: functional
HCC827 [11] = assay: Induction of cell cycle arrest in human HCC827 cells assessed as accumulation in S phase at 0.1 uM incubated for 32 hrs by PI staining based flow cytometry analysis (reference value: 41.26 %); type: functional
HCC827 [12] = assay: Induction of cell cycle arrest in human HCC827 cells assessed as accumulation in G2 phase at 1 uM incubated for 32 hrs by PI staining based flow cytometry analysis (reference value: 8.25 %); type: functional
HCC827 [13] = assay: Induction of apoptosis in human HCC827 cells assessed as viable cells at 0.1 uM incubated for 32 hrs by annexin V-FITC and PI staining based flow cytometry analysis (reference value: 76.79 %); type: functional; settings: read-out: Activity
HCC827 [14] = assay: Induction of apoptosis in human HCC827 cells assessed as late apoptotic cells at 1 uM incubated for 32 hrs by annexin V-FITC and PI staining based flow cytometry analysis (reference value: 18.02%); type: functional
HCC827 [15] = assay: Induction of apoptosis in human HCC827 cells assessed as early apoptotic cells at 0.1 uM incubated for 32 hrs by annexin V-FITC and PI staining based flow cytometry analysis (reference value: 2.31 %); type: functional

SMILES	IC50 (A549)	IC50 (HCC827 [1])	IC50 (NCI-H1975)	IC50 (A-431)	further results
Cc1ncsc1-c1ccc(CNC(=O)[C@@H]2C[C@@H](O)CN2C(=O)[C@@H](NCCOCCOCCn2cc(CN3CCN(c4ccc(Nc5cc6c(N7CCC(CO)CC7)nc(Nc7ccc(F)cc7)nc6cn5)nc4)CC3)nn2)C(C)(C)C)cc1	> 10000 nM	1760 nM	> 10000 nM	> 10000 nM	–
Cc1ncsc1-c1ccc(CNC(=O)[C@@H]2C[C@@H](O)CN2C(=O)[C@@H](NCCOCCOCCN2CCN(c3ccc(Nc4cc5c(N6CCC(CO)CC6)nc(Nc6ccc(F)cc6)nc5cn4)nc3)CC2)C(C)(C)C)cc1	–	340 nM	2970 nM	2460 nM	–
Cc1ncsc1-c1ccc(CNC(=O)[C@@H]2C[C@@H](O)CN2C(=O)[C@@H](N)C(C)(C)C)cc1	–	> 10000 nM	–	–	–
O=C(CN1CCN(c2ccc(Nc3cc4c(N5CCC(CO)CC5)nc(Nc5ccc(F)cc5)nc4cn3)nc2)CC1)NCCC(=O)Nc1cccc2c1CN(C1CCC(=O)NC1=O)C2=O (stereo unspecified)	–	2760 nM	–	–	–
O=C1CCC(N2Cc3c(NC(=O)CCCCCCN4CCN(c5ccc(Nc6cc7c(N8CCC(CO)CC8)nc(Nc8ccc(F)cc8)nc7cn6)nc5)CC4)cccc3C2=O)C(=O)N1 (stereo unspecified)	–	1210 nM	–	–	–
Cc1ncsc1-c1ccc(CNC(=O)[C@@H]2C[C@@H](O)CN2C(=O)[C@@H](NCCOCCOCCOCCN2CCN(c3ccc(Nc4cc5c(N6CCC(CO)CC6)nc(Nc6ccc(F)cc6)nc5cn4)nc3)CC2)C(C)(C)C)cc1	6390 nM	710 nM	2640 nM	2320 nM	–
O=C1CCC(N2Cc3c(NC(=O)CCCCN4CCN(c5ccc(Nc6cc7c(N8CCC(CO)CC8)nc(Nc8ccc(F)cc8)nc7cn6)nc5)CC4)cccc3C2=O)C(=O)N1 (stereo unspecified)	–	> 10000 nM	–	–	–
O=C1CCC(N2Cc3c(NC(=O)CCCCCCCn4cc(CN5CCN(c6ccc(Nc7cc8c(N9CCC(CO)CC9)nc(Nc9ccc(F)cc9)nc8cn7)nc6)CC5)nn4)cccc3C2=O)C(=O)N1 (stereo unspecified)	–	7910 nM	> 10000 nM	> 10000 nM	–
C=CC(=O)Nc1cc(Nc2nccc(-c3cn(C)c4ccccc34)n2)c(OC)cc1N(C)CCN(C)C [OSIMERTINIB]	900 nM	36 nM	[…]	[…]	Activity (HCC827 [2]): 10.16%; Activity (HCC827 [3]): 15.24%; Activity (HCC827 [4]): 6.11%; Activity (HCC827 [5]): 82.45%; viability at 1 µM (HCC827 [6]): 24%; Activity (HCC827 [7]): 55.86%; Activity (HCC827 [8]): 8.26%; Activity (HCC827 [9]): 80.12%; Activity (HCC827 [10]): 10.32%; Activity (HCC827 [11]): 9.29%; Activity (HCC827 [12]): 9.71%; viability at 0.1 µM (HCC827 [13]): 23.8%; Activity (HCC827 [14]): 59.59%; Activity (HCC827 [15]): 5.07%
